In data set [1] the test system is HepG2. As to the kind of experiment: Phototoxicity against human HepG2 cells assessed as reduction in cell viability up to 100 uM irradiated with LED light at 1.7 J/cm'2 measured after 12 hrs by MTT assay. Format: functional, cell-based.
Data set [2] in a line: Dark toxicity against human HepG2 cells assessed as reduction in cell viability incubated overnight by MTT assay. Format: cell-based.
The subject of data set [3] is HepG2. As to the kind of experiment: Induction of intracellular ROS production in human HepG2 cells at 30 uM incubated for 10 hrs followed by DCF-DA addition for 20 mins in dark and irradiated with LED light at 1.7 J/cm'2 by fluorescence assay. Format: functional, cell-based.
Data set [4] concerns HepG2. As to the kind of experiment: Phototoxicity against human HepG2 cells assessed as reduction in cell viability preincubated overnight followed by irradiation with LED light at 1.7 J/cm'2 for 10 mins measured post overnight incubation by MTT assay. Type of data set: functional, cell-based. Particulars: HepG2, light or radiation study.
Data set [5] in a line: Induction of singlet oxygen production in Tris-Hcl buffer after irradiation with LED light at 1.7 J/cm'2 at 100 uM at pH 7.4 by ATTA-Eu3+ probe based fluorescence microscopy.
The nature of data set [6]: Drug uptake in human HepG2 cells at 30 uM measured up to 10 hrs by fluorescence assay. Format: ADME, cell-based. The note with it: hepg2, 10 h.

pIC50: −log10 of the molar value. Active and inactive are the calls of the source. The calls are words filed in the database; no cut-off is given here.

As for `C[C@H]1[C@H](OC(=O)CCC(=O)O)O[C@@H]2O[C@@]3(C)CC[C@H]4[C@H](C)CC[C@@H]1[C@@]24OO3` [ARTESUNATE], the result in data set [1] and in data set [3] was Active. Also, the pIC50 in data set [2] was 5.19; in data set [4], 5.11.
Take `C=Cc1c(C)c2cc3nc(c(CC(=O)NCCNC(=O)CCC(=O)O[C@@H]4O[C@@H]5O[C@@]6(C)CC[C@H]7[C@H](C)CC[C@@H]([C@H]4C)[C@@]57OO6)c4[nH]c(cc5nc(cc1[nH]2)C(C)=C5CC)c(C)c4C(=O)O)[C@@H](CCC(=O)O)[C@@H]3C`: the outcome in data set [1], in data set [5] and in data set [3] was Active. The figures for the pIC50 in data set [2] and in data set [4] were 4.24 and 5.62, respectively. Also, the Drug uptake entry in data set [6] was “Active”.
As to `C=Cc1c(C)c2cc3nc(c(CC(=O)O)c4[nH]c(cc5nc(cc1[nH]2)C(C)=C5CC)c(C)c4C(=O)O)[C@@H](CCC(=O)NCCNC(=O)CCC(=O)O[C@@H]1O[C@@H]2O[C@@]4(C)CC[C@H]5[C@H](C)CC[C@@H]([C@H]1C)[C@@]25OO4)[C@@H]3C`, the outcome in data set [1], in data set [5] and in data set [3] was Active. Moreover, the results for the pIC50 in data set [2] and in data set [4] were 4.54 and 5.82, respectively. For the same compound, the Drug uptake result in data set [6] is “Active”.
Regarding `C=Cc1c(C)c2cc3nc(c(CC(=O)NCCNC(=O)CCC(=O)O[C@@H]4O[C@@H]5O[C@@]6(C)CC[C@H]7[C@H](C)CC[C@@H]([C@H]4C)[C@@]57OO6)c4[nH]c(cc5nc(cc1[nH]2)C(C)=C5CC)c(C)c4C(=O)NCCNC(=O)CCC(=O)O[C@@H]1O[C@@H]2O[C@@]4(C)CC[C@H]5[C@H](C)CC[C@@H]([C@H]1C)[C@@]25OO4)[C@@H](CCC(=O)NCCNC(=O)CCC(=O)O[C@@H]1O[C@@H]2O[C@@]4(C)CC[C@H]5[C@H](C)CC[C@@H]([C@H]1C)[C@@]25OO4)[C@@H]3C`, the outcome in data set [1] and in data set [3] was Active. Moreover, the pIC50 is 4.89 in data set [2] and 6.10 in data set [4]. The outcome in data set [5] was inactive. Besides, the Drug uptake result in data set [6] is given as “Active”.
Take `C=Cc1c(C)c2cc3nc(c(CC(=O)O)c4[nH]c(cc5nc(cc1[nH]2)C(C)=C5CC)c(C)c4C(=O)NCCNC(=O)CCC(=O)O[C@@H]1O[C@@H]2O[C@@]4(C)CC[C@H]5[C@H](C)CC[C@@H]([C@H]1C)[C@@]25OO4)[C@@H](CCC(=O)O)[C@@H]3C`: the outcome in data set [1], in data set [5] and in data set [3] was Active. Also, the pIC50 in data set [2] is 4.44; in data set [4], 5.74. For the same compound, the Drug uptake result in data set [6] is “Active”.
In the case of `C=CC1=C(C)/C2=C/C3=NC(=C(/CC(=O)NCCNC(=O)OC(C)(C)C)c4[nH]c(c(C)c4C(=O)O)/C=C4\N=C(CC1N2)C(C)=C4CC)/[C@@H](CCC(=O)O)[C@@H]3C` (stereo not given in full), the Drug uptake entry in data set [6] is reported as “Active”. The result in data set [3] was Active.

For the origin of these results see ChEMBL document CHEMBL4043215, “Synergistic antiproliferative effect of chemo-phototherapy: Synthesis and photodynamic activity evaluation of novel Chlorin e6-artesunate conjugates as antiproliferative agents” (Bioorg Med Chem Lett, 2017).
